# Literature values in US11744998B2, “Drug delivery devices with drug-permeable component and methods” (TARIS Biomedical LLC, priority 2015, dated 2023).
# Where a name gives a salt, the structure may show the parent alone.
# Conditions: water at 37° C.
row,Structure (SMILES),approximate solubility
1,Nc1ccn([C@@H]2O[C@H](CO)[C@@H](O)C2(F)F)c(=O)n1 [gemcitabine base],~15 mg/mL
2,Cc1ccc(O)c([C@H](CCN(C(C)C)C(C)C)c2ccccc2)c1 [tolterodine tartrate],~12 mg/mL
3,O=C(O[C@H]1C[C@H]2CC[C@@H](C1)[N+]21CCCC1)C(O)(c1ccccc1)c1ccccc1 [trospium chloride],~500 mg/mL
4,Nc1ccn([C@@H]2O[C@H](CO)[C@@H](O)C2(F)F)c(=O)n1 [gemcitabine HCl],~80 mg/mL
